{"source": "patent US6054450A", "about": "“Hair-care cosmetic compositions having dandruff formation-suppressing effect” (Pacific Corporation, priority 1997, dated 2000)", "key": {"Solubility": {"experiment": "Solubility", "format": "physicochemical"}, "Pityrosporum ovlae": {"system": "Pityrosporum ovlae", "experiment": "Antibacterial activity against Pityrosporum ovlae (general statement)", "format": "cell-based"}, "[1]": {"conditions": "cited from earlier work; for Acute Oral LD50: rats"}, "[2]": {"experiment": "Stability of iodopropynyl butylcarbamate to temperature and pH", "conditions": "70~80° C. and pH 4~10"}, "[3]": {"conditions": "cited from earlier work"}}}
{"smiles": "CCCCNC(=O)OCC#CI", "note": "[iodopropynyl butylcarbamate]", "values": [{"measurement": "solubility in alcohols or glycol derivatives", "setting": "Solubility; alcohols or glycol derivatives", "value": "high solubility"}, {"measurement": "solubility in ionic or non-ionic surfactants", "setting": "Solubility; ionic or non-ionic surfactants", "value": "good solubility"}, {"measurement": "solubility in water", "setting": "Solubility; water", "value": "low solubility"}, {"measurement": "MIC", "setting": "Pityrosporum ovlae", "value": "very low"}, {"measurement": "antibacterial action", "setting": "Pityrosporum ovlae", "value": "very strong"}, {"measurement": "safety and toxicity compared with zinc pyrithione", "setting": "[1]; compared with zinc pyrithione", "value": "very advantageous over zinc pyrithione"}, {"measurement": "Acute Oral LD50", "setting": "[1]", "value": 1470, "unit": "mg/kg"}, {"measurement": "stability", "setting": "[2]", "value": "very stable"}]}
{"smiles": "[O-]n1ccccc1=S.[O-]n1ccccc1=S.[Zn+2]", "note": "[zinc pyrithione, zinc salt of 1-hydroxy-2(1H) pyridinethione]", "values": [{"measurement": "solubility in ethanol", "setting": "[3]; ethanol", "value": 310, "unit": "ppm"}, {"measurement": "solubility in water at 25° C.", "setting": "[3]; water, 25° C.", "value": "about 15 ppm"}, {"measurement": "solubility", "setting": "[3]; water, ethanol and most common organic solvents such as ethylene glycol, diethyl ether and isopropanol", "value": "substantially insoluble"}, {"measurement": "Acute Oral LD50", "setting": "[1]", "value": 354, "unit": "mg/kg"}]}
